Measurements from patent US10898873B2, “Lecithin compositions and methods of making and using such lecithin compositions” (Archer Daniels Midland Company, priority 2015, dated 2021).

Experiment: Solubility of sorbitol in ethanol
Assay type: physicochemical
Excerpt: Sugar alcohols can become heavily supersaturated upon cooling. When water is slowly replaced with ethanol, there can be a significant change in the maximum concentration at which the solute is completely soluble. In this example, blends of a 70% sorbitol solution and ethanol were made.

clarity of sorbitol/ethanol blend (70% sorbitol solution and ethanol, ratio 70:30): completely clear
clarity of sorbitol/ethanol blend (blends with greater than 30% ethanol): crystallization of the sorbitol
SMILES: OC[C@@H](O)[C@@H](O)[C@H](O)[C@@H](O)CO [sorbitol]
